Assay results published in ChEMBL document CHEMBL3885861, “Open TG-GATES”.

Organism: Rattus norvegicus
Experiment: Open TG-GATES - Regimen: Single
Format: toxicity, organism-based, Sprague-Dawley
Design: regimen Single, gender Male, age 6 weeks
Settings: in vivo, po, 0 mg/kg, route gavage, dose level Control; for APTT / Bas / Eos / Fbg / Hb / Ht / Lym / MCH / MCHC / MCV / Mono / Neu / PT / Plat / RBC / Ret / WBC: tissue Blood; for KIDNEY_L / KIDNEY_R / KIDNEY_TOTAL: tissue Kidney; for LIVER: tissue Liver; for A/G / ALP / ALT / AST / BUN / CRE / Ca / Cl / DBIL / GLC / IP / K / LDH / Na / PL / RALB / TBIL / TC / TG / TP / gamma-GTP: tissue Plasma

CC(S)C(=O)NCC(=O)O (configuration not stated) [TIOPRONIN]
TERMINAL_BW (3 h): 208.8 g | APTT (3 h): 22.5 s | Bas (3 h): 0% | Eos (3 h): 0.8% | Fbg (3 h): 292.4 mg/dL | Hb (3 h): 13.1 g/dL | Ht (3 h): 40.4% | Lym (3 h): 81.6% | MCH (3 h): 20.2 pg | MCHC (3 h): 32.5% | MCV (3 h): 62.3 fL | Mono (3 h): 1.4% | Neu (3 h): 15.8% | PT (3 h): 16.1 s | Plat (3 h): 120.4 x10_4/uL | RBC (3 h): 649.6 x10_4/ul | Ret (3 h): 7.5% | WBC (3 h): 75.2 x10_2/uL | KIDNEY_L (3 h): 0.9 g | KIDNEY_R (3 h): 0.9 g | KIDNEY_TOTAL (3 h): 1.8 g | LIVER (3 h): 9.1 g | A/G (3 h): 1.2 | ALP (3 h): 2032.2 IU/L | ALT (3 h): 46 IU/L | AST (3 h): 80.4 IU/L | BUN (3 h): 11.4 mg/dL | CRE (3 h): 0.1 mg/dL | Ca (3 h): 10.7 mg/dL | Cl (3 h): 107 meq/L | DBIL (3 h): 0.002 mg/dL | GLC (3 h): 190.8 mg/dL | IP (3 h): 7.7 mg/dL | K (3 h): 4.1 meq/L | LDH (3 h): 203.8 IU/L | Na (3 h): 143.8 meq/L | PL (3 h): 128.6 mg/dL | RALB (3 h): 2.9 g/dL | TBIL (3 h): 0.02 mg/dL | TC (3 h): 70.8 mg/dL | TG (3 h): 65.4 mg/dL | TP (3 h): 5.4 g/dL | gamma-GTP (3 h): 1.8 IU/L | TERMINAL_BW (6 h): 208.1 g | APTT (6 h): 21.5 s | Bas (6 h): 0% | Eos (6 h): 0.2% | Fbg (6 h): 295.4 mg/dL | Hb (6 h): 13 g/dL | Ht (6 h): 39.8% | Lym (6 h): 83% | MCH (6 h): 21 pg | MCHC (6 h): 32.8% | MCV (6 h): 64.1 fL | Mono (6 h): 1.8% | Neu (6 h): 14.2% | PT (6 h): 15.8 s | Plat (6 h): 116.3 x10_4/uL | RBC (6 h): 621 x10_4/ul | Ret (6 h): 8.1% | WBC (6 h): 116.1 x10_2/uL | KIDNEY_L (6 h): 0.9 g | KIDNEY_R (6 h): 1 g | KIDNEY_TOTAL (6 h): 1.9 g | LIVER (6 h): 9 g | A/G (6 h): 1.2 | ALP (6 h): 1487.4 IU/L | ALT (6 h): 39 IU/L | AST (6 h): 69.6 IU/L | BUN (6 h): 10.6 mg/dL | CRE (6 h): 0.1 mg/dL | Ca (6 h): 10.5 mg/dL | Cl (6 h): 106.4 meq/L | DBIL (6 h): 0.002 mg/dL | GLC (6 h): 184.2 mg/dL | IP (6 h): 8.8 mg/dL | K (6 h): 4.4 meq/L | LDH (6 h): 154.4 IU/L | Na (6 h): 143.8 meq/L | PL (6 h): 141.4 mg/dL | RALB (6 h): 2.9 g/dL | TBIL (6 h): 0.022 mg/dL | TC (6 h): 80.2 mg/dL | TG (6 h): 72.2 mg/dL | TP (6 h): 5.3 g/dL | gamma-GTP (6 h): 1.6 IU/L | TERMINAL_BW (9 h): 209.7 g | APTT (9 h): 22.9 s | Bas (9 h): 0% | Eos (9 h): 0.8% | Fbg (9 h): 294.2 mg/dL | Hb (9 h): 12.7 g/dL | Ht (9 h): 39.4% | Lym (9 h): 81.6% | MCH (9 h): 19.9 pg | MCHC (9 h): 32.1% | MCV (9 h): 61.7 fL | Mono (9 h): 2% | Neu (9 h): 15.2% | PT (9 h): 16.2 s | Plat (9 h): 121.4 x10_4/uL | RBC (9 h): 639.2 x10_4/ul | Ret (9 h): 8.3% | WBC (9 h): 95.7 x10_2/uL | KIDNEY_L (9 h): 0.9 g | KIDNEY_R (9 h): 0.9 g | KIDNEY_TOTAL (9 h): 1.9 g | LIVER (9 h): 9.1 g | A/G (9 h): 1.1 | ALP (9 h): 1667.4 IU/L | ALT (9 h): 36.2 IU/L | AST (9 h): 65.8 IU/L | BUN (9 h): 12.2 mg/dL | CRE (9 h): 0.1 mg/dL | Ca (9 h): 10.5 mg/dL | Cl (9 h): 105 meq/L | DBIL (9 h): 0 mg/dL | GLC (9 h): 195.8 mg/dL | IP (9 h): 9.8 mg/dL | K (9 h): 4.5 meq/L | LDH (9 h): 147 IU/L | Na (9 h): 143.8 meq/L | PL (9 h): 120.2 mg/dL | RALB (9 h): 2.8 g/dL | TBIL (9 h): 0.012 mg/dL | TC (9 h): 64.8 mg/dL | TG (9 h): 64.2 mg/dL | TP (9 h): 5.3 g/dL | gamma-GTP (9 h): 1.4 IU/L | TERMINAL_BW (24 h): 219.9 g | APTT (24 h): 21.2 s | Bas (24 h): 0% | Eos (24 h): 1% | Fbg (24 h): 307 mg/dL | Hb (24 h): 12.9 g/dL | Ht (24 h): 39.6% | Lym (24 h): 77.8% | MCH (24 h): 21.2 pg | MCHC (24 h): 32.7% | MCV (24 h): 64.7 fL | Mono (24 h): 3% | Neu (24 h): 17.4% | PT (24 h): 16.4 s | Plat (24 h): 115.1 x10_4/uL | RBC (24 h): 612 x10_4/ul | Ret (24 h): 7.6% | WBC (24 h): 103.4 x10_2/uL | KIDNEY_L (24 h): 1 g | KIDNEY_R (24 h): 1 g | KIDNEY_TOTAL (24 h): 2 g | LIVER (24 h): 10.1 g | A/G (24 h): 1.1 | ALP (24 h): 1636.2 IU/L | ALT (24 h): 44 IU/L | AST (24 h): 74.2 IU/L | BUN (24 h): 16.6 mg/dL | CRE (24 h): 0.2 mg/dL | Ca (24 h): 10.7 mg/dL | Cl (24 h): 105.6 meq/L | DBIL (24 h): 0 mg/dL | GLC (24 h): 196.4 mg/dL | IP (24 h): 7.1 mg/dL | K (24 h): 4.4 meq/L | LDH (24 h): 179.8 IU/L | Na (24 h): 142 meq/L | PL (24 h): 135.2 mg/dL | RALB (24 h): 2.8 g/dL | TBIL (24 h): 0.004 mg/dL | TC (24 h): 75.2 mg/dL | TG (24 h): 76.8 mg/dL | TP (24 h): 5.4 g/dL | gamma-GTP (24 h): 1.4 IU/L
